Assay results taken from patent US7345078B2, “NF-κB inhibitors and uses thereof” (The Board of Trustees of Michigan State University, priority 2002, dated 2008).
Read-outs that look alike come from different tables or passages of the source. Marks after values point to notes of the source that are not given here.

Tests used:
[1] = tested on: RIF-1 murine tumor; assay: RIF-1 murine model of tumor growth delay; format: in vivo, mice; conditions: for Days Delay (tumor growth delay) / Median (days to 4x) / Days to 4x (Ave ±SE) / T/C (ratio of Days to 4x of treated over untreated controls): IP, imidazoline 100 mg/kg, cis-platin 4 mg/kg, camptothecin 6 mg/kg; for Median (days to 4x): untreated 7.0; for Days to 4x (Ave ±SE): untreated 7.3 ± 0.6; for chemopotentiation of camptothecin: combinational treatment with camptothecin (CPT); for chemopotentiation of camptothecin / chemopotentiation of cis-platin: RIF-1 tumors in mice; for chemopotentiation of cis-platin: combinational treatment with cis-platin (CDDP)
Experimental: Tumor cells were injected, bilaterally, into the backs of mice. When tumors reached 100 mm^3, the mice were treated with an intraperitoneal injection of the compound. Tumor volumes were measured 3 times a week until they reached 4 times the size they were on the first treatment day. Data is recorded as “Days to 4×’ or ratio of ‘Days to 4×” of the treated over untreated controls.

[2] = target: T1, NF-κB (Homo sapiens, UniProt P19838+Q04206); assay: EMSA of nuclear NF-κB-DNA binding in nuclear extracts of PMA-stimulated Jurkat leukemia T-cells; format: cell-based; parameters: endogenous in cells; host or cells: Jurkat leukemia T-cells, clone E6-1 (ATCC), PMA-stimulated; nuclear extract
Experimental: (§1) All compounds were evaluated for their potential anti-inflammatory activity by examining the activity of NF-κB in vitro in nuclear extracts using the procedure from Breton and Charbot-Fletcher (Breton et al., J. Pharmacol. Exp. Ther. 282 459-466 (1997)). […] The Jurkat cells (1×10^7 cells/mL) are subsequently treated with various concentrations of imidazoline for 30 minutes at 37° C. followed by PMA stimulation (5.0 ng/mL) for an additional 5 hours. Nuclear extracts are incubated for 20 minutes with a double stranded Cy3 labeled NF-κB consensus oligonucleotide, 5′-[…]-3′ (SEQ ID NO:1) at room temperature. The crude mixture is loaded on a 5% non-denaturing polyacrylamide gel prepared in 1×Tris borate/EDTA buffer and electrophoresed at 200V for 2 hours. After electrophoresis the gel is analyzed using a phosphorimager (Biorad FX PLUS) for detection of the NF-κB-DNA binding.
EMSA assay for NF-κB-DNA binding was as follows. […] The Jurkat cells (1×10^6 cells/mL) were subsequently treated with various concentrations of the compounds for 30 minutes at 37° C. and 5% CO2 followed by PMA (50 ng/mL) and PHA ([…]) stimulation for an additional 30 minutes. The cells were harvested by centrifugation, washed in ice cold PBS and the nuclear extracts were prepared as previously described (Dignam, et al., Nucl. Acids Res 11: 1475-1489 (1983)). The protein concentration of the extracts was determined according to the Method of Bradford (1976) with BioRad reagents. Nuclear extracts are incubated for 20 minutes at room temperature with a double stranded Cy3 labeled NF-kB consensus oligonucleotide, 5′-[…] CCAGGC-3′ (SEQ ID NO:1). The binding mixture ([…]) contained 10 mM HEPES-NaOH pH 7.9, 4 mM tris-HCl, pH 7.9, 6.0 mM KCl, 1 mM EDTA, 1 mM DTT, 10% glycerol, 0.3 mg/mL bovide serum albumin and […] of poly (dI.dC). The binding mixtures ([…] of nuclear extract protein) were incubated for 20 minutes at room temrperature with 0.16 pmol of Cy3 labeled oligonucleotide. The mixture was loaded on a 4% polyacrylamide gel prepared in 1× tris borate/EDTA buffer and was electrophoresed at 200 V for 20 minutes. After electrophoresis the gel was analyzed using a phosphorimager (Biorad FX plus) for detection of the NF-kB—DNA binding.

[3] = target: T1, NF-κB; assay: IC50 values in Mammalian Jurkat cells Leukemia T cells; format: cell-based; parameters: endogenous in cells; host or cells: Jurkat leukemia T-cells, clone E6-1 (ATCC), PMA-stimulated; nuclear extract; conditions: concentration at which 50% of the protein/enzyme is inhibited in cells
Experimental: as §1
IC50 values in Mammalian Jurkat cells Leukemia T cells: IC50 value is defined as the concentration of compounds at which 50% of the protein/enzyme is inhibited in cells (Table 3).

[4] = tested on: CEM cells; conditions: for sensitization of CEM cells towards camptothecin: camptothecin 0.1 μM
Experimental: Imidazolines 28-33 were evaluated for their ability to enhance the activity of camptothecin in CEM cells. Induction of apoptosis is the hallmark of most chemotherapeutic agents including camptothecin. The systematic disassembly of apoptotic cells is accomplished by active caspases (Thornberry et al., Nature 356: 768-774 (1992); Nicholson et al., Trends Biochem. Sci. 22: 299-306 (1997)). A standard apoptosis assay is Promega's APO-ONE homogeneous caspase-3/7 assay, which takes advantage of this caspase activity to directly quantify the induction of apoptosis in cells (Thornberry et al., Nature 356: 768-774 (1992); Nicholson et al., Trends Biochem. Sci. 22: 299-306 (1997)). According to the hypothesis that NF-κB inhibition should enhance the activity of chemotherapeutic agents via the inhibition of anti-apoptotic signaling pathway—thus enhancement of apoptosis—(Boland, Biochem Soc Trans 29: 674-678 (2001); Chiao et al., Cancer 95: 1696-1705 (2002)), we investigated the effects of the imidazolines using this caspase-3/7 assay. This assay quantifies the level of apoptotic cell death induced by camptothecin with and without the imidazolines and will establish the direct level of enhancement of apoptosis by camptothecin.
Induction of apoptosis using caspase 3/7 assay was as follows. CEM cells (CCRF-CEM); Amer. Type Culture Collection, Rockville, Md.) were grown in RPMI-1640 Media (Gibco-BRL, Rockville, Md.) supplemented with 10% fetal bovine serum, penicillin (614 ηg/mL), streptomycin (10 μg/mL) and hepes buffer, pH 7.2 at 37° C., 5% CO2. DMSO was used as the vector for all drugs and added in the control experiments. Cell cultures were treated with 1 μM, 0.1 μM or 10 nM of the imidazolines and allowed to incubate at 37° C., 5% CO2. An aliquote was transferred to a 96-well plate and mixed with an equal volume of Apo-ONE™ Homogenous Caspase-3/7 assay (Promega Corporation) reagent. The contents of the plate were gently mixed and allowed to incubate for 1 hour. The fluorescence of each well was then measured on a Molecular Imager FX Pro at 532 nm. All reported data was the average of two independent experiments unless otherwise indicated.

[5] = target: T1, NF-κB; assay: EMSA of camptothecin activated NF-κB in CEM leukemia T-cells; format: cell-based; parameters: endogenous in cells; nuclear extract; conditions: camptothecin 10 μM to 10 nM, 2 hours
Experimental: CEM cells were incubated with and without varying concentrations of camptothecin (CPT). Positive controls included PMA/PHA activation (FIG. 11, lane 2). Lane 3 included a positive control using PMA/PHA activation followed by the treatment of the extract with a NF-κB p65 antibody to unambiguously identify the NF-κB/DNA complex.
CEM cells were treated with various concentration of imidazoline 32, 30 minutes prior to activation by camptothecin (0.1 μM). […] Control lanes include: DNA only (lane 1), PMA/PHA activated NF-κB (lane 2), PMA/PHA activated NF-κB treated with a p65 antibody, which provide a supershift (lane 3) and the unactivated control (lane 4).
EMSA assay for NF-κB-DNA binding was as follows. […] The cells were harvested by centrifugation, washed in ice cold PBS and the nuclear extracts were prepared as previously described (Dignam, et al., Nucl. Acids Res 11: 1475-1489 (1983)). The protein concentration of the extracts was determined according to the Method of Bradford (1976) with BioRad reagents. Nuclear extracts are incubated for 20 minutes at room temperature with a double stranded Cy3 labeled NF-kB consensus oligonucleotide, 5′-[sequence] […] The binding mixture (25 mL) contained 10 mM HEPES-NaOH pH 7.9, 4 mM tris-HCl, pH 7.9, 6.0 mM KCl, 1 mM EDTA, 1 mM DTT, 10% glycerol, 0.3 mg/mL bovide serum albumin and 1 mg of poly (dI.dC). The binding mixtures (10 mg of nuclear extract protein) were incubated for 20 minutes at room temrperature with 0.16 pmol of Cy3 labeled oligonucleotide. The mixture was loaded on a 4% polyacrylamide gel prepared in 1× tris borate/EDTA buffer and was electrophoresed at 200 V for 20 minutes. After electrophoresis the gel was analyzed using a phosphorimager (Biorad FX plus) for detection of the NF-kB—DNA binding.

T1 sequence (Q04206 whole entry): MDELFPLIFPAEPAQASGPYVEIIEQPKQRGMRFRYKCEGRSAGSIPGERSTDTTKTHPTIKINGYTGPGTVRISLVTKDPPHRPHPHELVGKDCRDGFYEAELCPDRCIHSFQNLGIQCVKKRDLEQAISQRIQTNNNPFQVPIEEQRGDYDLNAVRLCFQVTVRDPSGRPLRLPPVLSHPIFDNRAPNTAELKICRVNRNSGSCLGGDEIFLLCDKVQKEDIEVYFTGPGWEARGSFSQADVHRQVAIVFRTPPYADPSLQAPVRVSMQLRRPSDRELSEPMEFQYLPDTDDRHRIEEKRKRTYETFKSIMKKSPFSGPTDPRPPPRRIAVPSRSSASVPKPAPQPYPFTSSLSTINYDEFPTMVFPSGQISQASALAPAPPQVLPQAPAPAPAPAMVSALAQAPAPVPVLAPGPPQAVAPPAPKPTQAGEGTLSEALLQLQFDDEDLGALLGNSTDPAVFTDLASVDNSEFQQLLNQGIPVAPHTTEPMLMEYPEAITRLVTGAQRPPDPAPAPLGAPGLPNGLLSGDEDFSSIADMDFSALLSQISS
T1 sequence (P19838 1-433 limits assumed): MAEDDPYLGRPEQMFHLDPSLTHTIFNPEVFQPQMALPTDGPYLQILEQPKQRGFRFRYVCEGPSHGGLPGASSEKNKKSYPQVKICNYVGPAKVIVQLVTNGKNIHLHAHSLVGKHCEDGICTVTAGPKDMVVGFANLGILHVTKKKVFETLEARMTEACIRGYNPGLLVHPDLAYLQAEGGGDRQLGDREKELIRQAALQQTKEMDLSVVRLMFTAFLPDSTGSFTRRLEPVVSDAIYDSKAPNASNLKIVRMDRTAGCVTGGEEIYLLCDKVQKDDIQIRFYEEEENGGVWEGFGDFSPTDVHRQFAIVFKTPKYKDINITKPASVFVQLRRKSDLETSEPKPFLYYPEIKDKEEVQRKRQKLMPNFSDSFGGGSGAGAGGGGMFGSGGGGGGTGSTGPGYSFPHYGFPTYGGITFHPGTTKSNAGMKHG

In the case of C[C@]1(C(=O)O)N=C(c2ccccc2)N(Cc2ccccc2)[C@H]1c1ccccc1 (racemic) [Compound 1, Dl-(3S,4S)-1-Benzyl-4-methyl-2,5-diphenyl-4,5-dihydro-1H-imidazole-4-carboxylic acid], the “Days Delay (tumor growth delay)” value [1] is reported as -0.57 days, the “Median (days to 4x)” value [1] is reported as 6.4 days and the “Days to 4x (Ave ±SE)” value [1] is reported as 6.5 ± 0.3 days. The chemopotentiation of camptothecin [1] was “no significant chemopotentiation”, the chemopotentiation of cis-platin [1] was “no significant chemopotentiation” and the inhibition at 1 µM ([2]; compound 1.0 μM) was 19%. The IC50 [3] was 1950 nM.

COc1ccc([C@@H]2N(Cc3ccccc3)C(c3ccccc3)=N[C@]2(C)C(=O)O)cc1 (racemic) [Compound 2, Dl-(3S,4S)-1-Benzyl-5-(4-methoxyphenyl)-4-methyl-2-phenyl-4,5-dihydro-1H-imidazole-4-carboxylic acid] was tested, and the inhibition at 1 µM ([2]; compound 1.0 μM) was 68% and the IC50 [3] was 40 nM.

C[C@]1(C(=O)O)N=C(c2ccccc2)N(c2ccc(F)cc2)[C@H]1c1ccccc1 (racemic) [Compound 3, Dl-(3S,4S)-1-(4-Fluorophenyl)-4-methyl-2,5-diphenyl-4,5-dihydro-1H-imidazole-4-carboxylic acid] was tested, and the “Days Delay (tumor growth delay)” value [1] was -0.20 days, the “Median (days to 4x)” value [1] was 6.8 days and the “Days to 4x (Ave ±SE)” value [1] was 7.6 ± 1.0 days. For the same compound, the chemopotentiation of camptothecin [1] was “no significant chemopotentiation”, the chemopotentiation of cis-platin [1] was “no significant chemopotentiation” and the inhibition at 1 µM ([2]; compound 1.0 μM) was 35%. The IC50 [3] was 6.5 nM.

For O=C(O)C1(Cc2c[nH]c3ccccc23)N=C(c2ccccc2)N(Cc2ccccc2)C1c1ccccc1 (racemic) [Compound 5, Dl-(3S,4S)-1-Benzyl-4-(1H-indol-3-ylmethyl)-2,5-diphenyl-4,5-dihydro-1H-imidazole-4-carboxylic acid], the “% inhibition of NF-κB” value ([2]; compound 1.0 μM) was 0%.

For CCOC(=O)[C@H]1N(c2ccc(F)cc2)C(c2ccccc2)=N[C@]1(C)C(=O)O (racemic) [Compound 8, Dl-(3S,4S)-1-(4-Fluorophenyl)-4-methyl-2-phenyl-4,5-dihydro-1H-imidazole-4,5-dicarboxylic acid 5-ethyl ester], the “% inhibition of NF-κB” value ([2]; compound 0.1 μM (100 nM)) was 88% and the “% inhibition of NF-κB” value ([2]; compound 1.0 μM) was 94%.

In the case of CCOC(=O)[C@@]1(C)N=C(c2ccccc2)N(Cc2ccccc2)[C@H]1c1ccncc1 (racemic) [Compound 9, Dl-(3S,4S)-1-Benzyl-4-methyl-2-phenyl-5-pyridin-4-yl-4,5-dihydro-1H-imidazole-4-carboxylic acid ethyl ester], the “% inhibition of NF-κB” value ([2]; compound 0.1 μM (100 nM), 0.1 µM) is reported as 71%.

CCOC(=O)C1(C)N=C(c2ccccc2)N(Cc2ccccc2)C1c1ccccc1 (racemic) [Compound 10, Dl-(3S,4S)-1-Benzyl-4-methyl-2,5-diphenyl-4,5-dihydro-1H-imidazole-4-carboxylic acid ethyl ester] was tested, and the “% inhibition of NF-κB” value ([2]; compound 0.1 μM (100 nM)) was 22%.

With CCOC(=O)[C@H]1N(c2ccc(F)cc2)C(c2ccccc2)=N[C@]1(C)C(=O)O (racemic) [Compound 29, dl-(4S,5S)-1-(4-Fluorophenyl)-4-methyl-2-phenyl-4,5-dihydro-1H-imidazole-4,5-dicarboxylic acid 5-ethyl ester] the “Apoptosis (±S.D.)” value ([4]; Compound 1.0 μm alone, T-cells, 48 hour period, cells only = 1.00 (normalized)) was 0.95 ± 0.24.

With CCOC(=O)[C@H]1N(c2ccc(F)cc2)C(c2ccccc2)=N[C@@]1(C(=O)O)c1ccccc1 (racemic) [Compound 30, dl-(4S,5S)-1-(4-Fluorophenyl)-2,4-diphenyl-4,5-dihydro-1H-imidazole-4,5-dicarboxylic acid 5-ethyl ester] the “Apoptosis (±S.D.)” value [4] was 1.18 ± 0.20, the “sensitization of CEM cells towards camptothecin” value ([4]; 0.01 μM imidazoline) was “sensitization” and the “sensitization of CEM cells towards camptothecin” value ([4]; 0.1 μM imidazoline) was “sensitization”. For the same compound, the “sensitization of CEM cells towards camptothecin” value ([4]; 1 μM imidazoline) was “sensitization”.

In the case of C[C@]1(C(=O)O)N=C(c2ccccc2)N(Cc2ccccc2)[C@H]1c1ccncc1 (racemic) [Compound 31, dl-(4S,5S)-1-Benzyl-4-methyl-2-phenyl-5-pyridin-4yl-4,5-dihydro-1H-imidazole-4-carboxylic acid], the “Apoptosis (±S.D.)” value [4] is reported as 1.18 ± 0.00^b, the “sensitization of CEM cells towards camptothecin” value ([4]; 0.01 μM imidazoline) is reported as “sensitization” and the “sensitization of CEM cells towards camptothecin” value ([4]; 0.1 μM imidazoline) is reported as “sensitization”. For the same compound, the “sensitization of CEM cells towards camptothecin” value ([4]; 1 μM imidazoline) was “sensitization”.

CC[C@@]1(O)C(=O)OCc2c1cc1n(c2=O)Cc2cc3ccccc3nc2-1 [Camptothecin, camptothecin, reference compound] was tested, and the “Days Delay (tumor growth delay)” value [1] was 3.79 days, the “T/C (ratio of Days to 4x of treated over untreated controls)” value [1] was 1.4 and the “Median (days to 4x)” value [1] was 10.8 days. The “Days to 4x (Ave ±SE)” value [1] was 10.3 ± 0.6 days, the “NF-κB/DNA binding due to NF-κB activation” value [5] was “significant amount of NF-κB/DNA binding” and the “Fold enhancement of camptothecin (0.1 μM) after 48 hours” value ([4]; CEM cells, imidazoline 1.0 μM + CPT 0.1 μM versus CPT 0.1 μM) was 1.00.

For N.N.[Cl][Pt][Cl] [Cis-platin, cis-platin, reference compound], the “Days Delay (tumor growth delay)” value [1] was 0.82 days, the “T/C (ratio of Days to 4x of treated over untreated controls)” value [1] was 1.1 and the “Median (days to 4x)” value [1] was 7.8 days. The “Days to 4x (Ave ±SE)” value [1] was 8.1 ± 0.4 days.
